Test systems include PC-3; NCI-H226; SK-MEL-5; UACC-257; SNB-19; SW-620; A549; NCI/ADR-RES; T47D; A498; 786-0; OVCAR-8; UACC-62; CCRF-CEM; HOP-62; MOLT-4; NCI-H23; ACHN; SK-OV-3; LOX IMVI.
Test in all cases: inhibition of tumour cell growth, NCI panel, 48 h

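Five concentrations, 48 hours, 96-well plates. At the GI50, growth is halved.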 The source made the active and inactive calls. Cut-off read from the data, not from the text of the source: active = GI50 up to about 1.1 µM and inactive = higher.

For `CN(C)CCCNc1c2c(=O)n(C)c(=O)nc-2n(C)c2ccccc12`, the GI50 was 4.08 µM (inactive) in the experiment with PC-3; 5.07 µM (inactive) in the experiment on NCI-H226; 6.21 µM (inactive) in the experiment on SK-MEL-5; 4.86 µM (inactive) in the experiment with UACC-257; 6.56 µM (inactive) in the experiment on SNB-19; 3.7 µM (inactive) in the experiment with SW-620. For the same compound, the GI50 with A549 was 4.74 µM (inactive); with NCI/ADR-RES, 67 µM (inactive); with T47D it was 5.12 µM (inactive); with A498 it was 9.27 µM (inactive); in the experiment with 786-0 it was 5.68 µM (inactive); in the experiment on OVCAR-8, 4.83 µM (inactive). Also, the GI50 was 5.22 µM (inactive) in the experiment with UACC-62; 3.4 µM (inactive) in the experiment with CCRF-CEM; 3.75 µM (inactive) in the experiment with HOP-62; 3.01 µM (inactive) in the experiment with MOLT-4; 7.41 µM (inactive) in the experiment on NCI-H23; 5.45 µM (inactive) in the experiment with ACHN. In addition, the GI50 in the experiment with SK-OV-3 is 6.24 µM (inactive); with LOX IMVI, 3.87 µM (inactive).

As to `COc1cc(OCc2nc3ccccc3n3cccc23)cc(OC)c1OC`, the GI50 in the experiment with PC-3 was 30.3 µM (inactive); in the experiment on NCI-H226, 9.73 µM (inactive); with SK-MEL-5, 2.42 µM (inactive); in the experiment with UACC-257 it was 10.6 µM (inactive); in the experiment with SNB-19, > 51.1 µM (inactive); in the experiment on SW-620, 8.34 µM (inactive). Also, the GI50 with A549 was 20.3 µM (inactive); with NCI/ADR-RES, 17.9 µM (inactive); in the experiment with T47D, 3.78 µM (inactive); in the experiment on A498, > 87.5 µM (inactive); in the experiment on 786-0, 24.4 µM (inactive); with OVCAR-8, 17.1 µM (inactive). The GI50 was 13.8 µM (inactive) in the experiment with UACC-62; 8.49 µM (inactive) in the experiment on CCRF-CEM; 37.2 µM (inactive) in the experiment on HOP-62; 2.37 µM (inactive) in the experiment with MOLT-4; 5.6 µM (inactive) in the experiment on NCI-H23; 21.6 µM (inactive) in the experiment on ACHN. Besides, the GI50 in the experiment on SK-OV-3 is 40.6 µM (inactive); in the experiment on LOX IMVI, 22.2 µM (inactive).

Take `CCOC(=O)C(O)(C(=O)OCC)c1cc(C(C)(C)C)c(O)c(C(C)(C)C)c1`: the GI50 was 33.7 µM (inactive) in the experiment on PC-3; 16.4 µM (inactive) with NCI-H226; 17.8 µM (inactive) in the experiment on SK-MEL-5; 34.4 µM (inactive) in the experiment with UACC-257; 26 µM (inactive) in the experiment on SNB-19; 37 µM (inactive) with SW-620. Moreover, the GI50 is 54.3 µM (inactive) in the experiment on A549; 18.6 µM (inactive) in the experiment on NCI/ADR-RES; 62.2 µM (inactive) in the experiment on T47D; 50.8 µM (inactive) in the experiment on A498; 51.4 µM (inactive) with 786-0; 15.5 µM (inactive) with OVCAR-8. Further, the GI50 with UACC-62 is 22.9 µM (inactive); with CCRF-CEM it was 37.2 µM (inactive); in the experiment with HOP-62, > 100 µM (inactive); in the experiment on MOLT-4, 25.8 µM (inactive); with NCI-H23, 43.6 µM (inactive); in the experiment on ACHN it was 41.3 µM (inactive). The figures for the GI50 with SK-OV-3 and in the experiment with LOX IMVI were 70.3 µM (inactive) and 37.2 µM (inactive), respectively.

Regarding `CCOC(=O)/C=C\c1c(Cl)n(-c2ccccc2)c(=O)n(-c2ccccc2)c1=O`, the GI50 is 18.7 µM (inactive) with PC-3; 20.7 µM (inactive) in the experiment with NCI-H226; 18.6 µM (inactive) in the experiment with UACC-257; 16 µM (inactive) in the experiment on SNB-19; 23.8 µM (inactive) with SW-620; 25.1 µM (inactive) in the experiment on A549. Further, the GI50 with NCI/ADR-RES is 26.5 µM (inactive); in the experiment with T47D, 20.2 µM (inactive); in the experiment with A498, 21.3 µM (inactive); with 786-0 it was 20.3 µM (inactive); in the experiment on OVCAR-8, 17.4 µM (inactive); with UACC-62 it was 18.3 µM (inactive). Also, the GI50 is 21.9 µM (inactive) with CCRF-CEM; 20.8 µM (inactive) with HOP-62; 38.5 µM (inactive) in the experiment on MOLT-4; 21.7 µM (inactive) in the experiment with NCI-H23; 20.7 µM (inactive) in the experiment on ACHN; 22.2 µM (inactive) in the experiment with SK-OV-3. For the same compound, the GI50 in the experiment on LOX IMVI is 22.6 µM (inactive).

Consider `COc1cc2c(cc1O)C1Cc3ccc(OC)c(O)c3C[N+]1(C)CC2` (stereo not drawn), for which the GI50 in the experiment with PC-3, with NCI-H226, in the experiment on SK-MEL-5, in the experiment with SNB-19, in the experiment with SW-620 and with A549 was > 100 µM (inactive) in each case. The GI50 in the experiment with NCI/ADR-RES, in the experiment on T47D, in the experiment with A498, with 786-0, in the experiment with OVCAR-8 and with UACC-62 was > 100 µM (inactive) throughout. The GI50 in the experiment on CCRF-CEM is 45 µM (inactive); in the experiment on HOP-62, > 100 µM (inactive); in the experiment with MOLT-4, > 100 µM (inactive); in the experiment on NCI-H23, > 100 µM (inactive); in the experiment on ACHN, > 100 µM (inactive); in the experiment on SK-OV-3, > 100 µM (inactive). In addition, the GI50 in the experiment with LOX IMVI was > 100 µM (inactive).

Regarding `CC(=O)Nc1ccc(NC(=O)CC(=O)Nc2ccc(NC(C)=O)cc2)cc1`, the GI50 in the experiment on PC-3, in the experiment with NCI-H226, in the experiment on SK-MEL-5, in the experiment on UACC-257, in the experiment with SNB-19 and in the experiment on SW-620 was > 100 µM (inactive) throughout. The GI50 is > 100 µM (inactive) in the experiment on A549; > 100 µM (inactive) in the experiment with NCI/ADR-RES; 32 µM (inactive) in the experiment with T47D; > 100 µM (inactive) with A498; > 100 µM (inactive) in the experiment on 786-0; > 100 µM (inactive) in the experiment with OVCAR-8. Further, the GI50 in the experiment on UACC-62 is 5.74 µM (inactive); with CCRF-CEM, > 100 µM (inactive); in the experiment on MOLT-4, > 100 µM (inactive); with NCI-H23 it was > 100 µM (inactive); in the experiment with ACHN, > 100 µM (inactive); in the experiment on SK-OV-3 it was 20.2 µM (inactive). Moreover, in the experiment with LOX IMVI, the GI50 is > 100 µM (inactive).

As for `O=C1CC=C2C3CC4N(CCC45c4ccccc4N1C25)C/C3=C\CO` (stereo not drawn), the GI50 with PC-3, with NCI-H226, in the experiment with SK-MEL-5, with UACC-257, with SNB-19 and in the experiment with SW-620 was > 100 µM (inactive) throughout. In addition, the GI50 in the experiment with A549, in the experiment with NCI/ADR-RES, in the experiment on T47D, with A498, in the experiment on 786-0 and in the experiment on OVCAR-8 was > 100 µM (inactive) throughout. For the same compound, the GI50 in the experiment on UACC-62, in the experiment with CCRF-CEM, in the experiment with MOLT-4, in the experiment with NCI-H23, with ACHN and in the experiment with SK-OV-3 was > 100 µM (inactive) in each case. Besides, the GI50 in the experiment with LOX IMVI was > 100 µM (inactive).

For the compound `O=C1CCCc2cc3c(cc21)CC1(C3)Cc2ccc3c(c2C1)C(=O)CCC3` (stereo not drawn), the GI50 in the experiment with PC-3 is 21.7 µM (inactive); in the experiment with NCI-H226, 6.38 µM (inactive); with SK-MEL-5 it was 2.2 µM (inactive); in the experiment on UACC-257, 5.24 µM (inactive); in the experiment with SNB-19, 67.6 µM (inactive); with SW-620, 15.6 µM (inactive). Besides, the GI50 in the experiment with A549 was 21.1 µM (inactive); in the experiment on NCI/ADR-RES, 6.25 µM (inactive); in the experiment with T47D it was 24.1 µM (inactive); in the experiment with A498 it was 41.2 µM (inactive); with 786-0, 30.7 µM (inactive); in the experiment on OVCAR-8 it was 16.4 µM (inactive). Further, the GI50 is 6.92 µM (inactive) in the experiment on CCRF-CEM; 67.9 µM (inactive) with HOP-62; 4.12 µM (inactive) in the experiment with MOLT-4; 22.5 µM (inactive) in the experiment on NCI-H23; 5.18 µM (inactive) in the experiment with ACHN; > 100 µM (inactive) with SK-OV-3. In the experiment with LOX IMVI, the GI50 is 11.7 µM (inactive).

Consider `CC(=O)n1cc(C2CC23N=C(c2ccccc2)OC3=O)c2ccccc21` (stereo not drawn), for which the GI50 in the experiment on PC-3 was 17.8 µM (inactive); in the experiment on NCI-H226 it was 23.6 µM (inactive); in the experiment with SK-MEL-5, 17.1 µM (inactive); with UACC-257, 15.7 µM (inactive); with SNB-19, 31.3 µM (inactive); in the experiment on SW-620, 19.8 µM (inactive). The GI50 is 21.7 µM (inactive) with A549; 18.2 µM (inactive) in the experiment on NCI/ADR-RES; 34.9 µM (inactive) in the experiment on T47D; 22.6 µM (inactive) in the experiment with A498; 14.8 µM (inactive) with 786-0; 16.6 µM (inactive) in the experiment on OVCAR-8. Besides, the GI50 in the experiment with UACC-62 was 16.9 µM (inactive); with CCRF-CEM, 1.12 µM (inactive); with HOP-62, 21.4 µM (inactive); in the experiment on NCI-H23, 16.5 µM (inactive); in the experiment with ACHN, 17.7 µM (inactive); in the experiment on SK-OV-3, 49.9 µM (inactive). In addition, the GI50 with LOX IMVI was 16 µM (inactive).

For `O=c1ssc2ncccc12`, the GI50 in the experiment with PC-3 was 44 µM (inactive); in the experiment on NCI-H226, 0.212 µM (active); in the experiment on SK-MEL-5 it was 13.2 µM (inactive); in the experiment on UACC-257 it was 20.3 µM (inactive); in the experiment with SNB-19 it was 39.2 µM (inactive); in the experiment with SW-620 it was 19.7 µM (inactive). Moreover, the GI50 in the experiment with A549 was 14.9 µM (inactive); with NCI/ADR-RES it was 32.6 µM (inactive); in the experiment on T47D it was 46 µM (inactive); in the experiment with A498 it was 59.3 µM (inactive); in the experiment with 786-0, 16.9 µM (inactive); in the experiment on UACC-62 it was 11.6 µM (inactive). Further, the GI50 in the experiment on CCRF-CEM was 31.5 µM (inactive); with HOP-62 it was 20.7 µM (inactive); with MOLT-4, 64 µM (inactive); with NCI-H23 it was 28.8 µM (inactive); with ACHN, 17.4 µM (inactive); with SK-OV-3 it was > 100 µM (inactive). In addition, the GI50 in the experiment on LOX IMVI was 16.3 µM (inactive).

The values above are taken from ChEMBL document CHEMBL1201862, “PubChem BioAssay data set” (2004).
